Measured values from patent US20250000883A1, “TREATING NEUROINFLAMMATORY CONDITIONS” (AN2 Therapeutics, Inc., priority 2021, published 2025).
In brackets after ≈: the same amount, converted by molar mass.

Test system: Porphyromonas gingivalis
Test: Antibacterial MIC testing (agar dilution, anaerobic)
Format: cell-based
Settings: supplemented Brucella agar, 44 h, 36° C.
Experimental: Epetraborole was placed is a stock solution and stored at −70° C. Serial two-fold dilutions were prepared on the day of testing.
Porphyromonas gingivalis organisms were recovered from clinical samples, identified by standard methods or by partial sequencing of the 16S gene and stored in 20% skim milk at −70° C. All isolates were taken from the freezer and subcultured at least twice on supplemented Brucella agar to ensure good growth. Inocula were prepared by direct suspensions of cells from 48 h cultures into saline or Brucella broth.
For all tested organisms, supplemented Brucella agar deeps were obtained from Anaerobe Systems (Morgan Hill, CA). Defibrinated sheep blood (Hardy Diagnostics, Santa Maria, CA) was frozen and thawed to produce laked blood. On the day of testing, laked blood and the antimicrobial agents were added to the tubes of molten agar before pouring the agar dilution plates. The strains were applied to the plates using a Steers multipronged inoculator for a final concentration of approximately 10^5 cfu/spot. After 44 h incubation at 36° C. in the anaerobic chamber incubator, the plates were examined for growth, and the MICs interpreted.

Q: Which MIC (Po. gingivalis clinical isolate RMA# 15676 (Abd-perit.fld)) does the source give for `NC[C@H]1OB(O)c2c(OCCCO)cccc21` [Epetraborole] here?
A: The MIC was 2 µg/mL (≈ 8.44 µM).

Q: What about the MIC (Po. gingivalis clinical isolate RMA# 15913 (Abd-perit.fld)) of the same compound?
A: Its MIC is 2 µg/mL (≈ 8.44 µM).

Q: What about the MIC (Po. gingivalis clinical isolate RMA# 16269 (Abd-perit.fld)) of the same compound?
A: The MIC was 0.125 µg/mL (≈ 0.527 µM).

Q: What about the MIC (Po. gingivalis clinical isolate RMA# 16389 (Abd-perit.fld)) of the same compound?
A: Its MIC is 0.5 µg/mL (≈ 2.11 µM).
